Reference: patent US20260098008A1, “COVALENT, CHEMOGENETIC ACTIVATORS FOR K2P POTASSIUM CHANNELS AND USES THEREOF” (THE REGENTS OF THE UNIVERSITY OF CALIFORNIA, priority 2022, published 2026)
Substitutions are numbered along the chain they refer to.

Columns and labels:
Assay type in all cases: cell-based
A286F TREK-1^CG* = target: T1, A286F TREK-1^CG* (Mus musculus, UniProt P97438, A301F/S146C); experiment: TEVC in Xenopus oocytes, attenuated channels; conditions: 20 μM; sequential addition of ML335, CAT335, BL-1249; 0 mV
T1 construct: expressed in transfected cells; host or cells: Xenopus laevis oocytes injected with mRNA
T1 sequence (P97438 1-411 isoform P97438-2 S131C/A286F): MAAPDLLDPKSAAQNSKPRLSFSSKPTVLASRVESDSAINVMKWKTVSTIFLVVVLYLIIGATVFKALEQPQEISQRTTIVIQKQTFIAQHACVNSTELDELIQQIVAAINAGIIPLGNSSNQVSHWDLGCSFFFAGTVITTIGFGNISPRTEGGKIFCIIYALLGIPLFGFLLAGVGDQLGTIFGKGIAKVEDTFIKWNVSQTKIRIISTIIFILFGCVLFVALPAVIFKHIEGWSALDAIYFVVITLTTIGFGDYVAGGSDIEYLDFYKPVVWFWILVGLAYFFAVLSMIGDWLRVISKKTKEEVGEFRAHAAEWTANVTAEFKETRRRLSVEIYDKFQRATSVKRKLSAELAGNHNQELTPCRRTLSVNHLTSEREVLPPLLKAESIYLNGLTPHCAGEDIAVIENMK
Description: (§1) Mouse K2P2.1 (TREK-1) (Genbank accession number: NP_034737.2), mouse K2P10.1 (TREK-2) (NM_001316665.1), mouse K2P4.1 (TRAAK) (NM_008431.3), human K2P4.1 (TRAAK) (NM_033310.2) and mouse K2P18.1(TRESK) (NM_207261.3) were used for this study. Point mutations were introduced by site-directed mutagenesis using custom primers and confirmed by sequencing before use. For studies using Xenopus oocytes, K2P channels were subcloned into a previously reported pGEMHE/pMO vector (46). For expression in HEK293 cells, mouse K2P2.1 (TREK-1) and mutants were expressed from a previously described pIRES2-EGFP vector in HEK293 cells (46,47). K2P2.1 (TREK-1) tandems were constructed by connecting the open reading frames for the individual subunits with a linker encoding the […] (SEQ ID NO: 19) sequence. Tandems used for HEK293 cells included an N-terminal HA tag ([…] (SEQ ID NO: 20)) on the first subunit.
(§2) Xenopus laevis oocytes were harvested according to UCSF IACUC Protocol AN129690 and digested using collagenase (Worthington Biochemical Corporation, #LS004183, 0.8-1.0 mg/mL) in Ca^21-free ND96 (96 mM NaCl, 2 mM KCl, 3.8 mM MgCl2, 5 mM HEPES pH 7.4) immediately post-harvest, as previously reported (31,33). Oocytes were maintained at 18° C. in ND96 (96 mM NaCl, 2 mM KCl, 1.8 mM CaCl2, 2 mM MgCl2, 5 mM HEPES pH 7.4) supplemented with antibiotics (100 units mL^−1 penicillin, 100 μg mL^−1 streptomycin, 50 μg mL^−1 gentimycin) and used for experiments within one week of harvest.
(§3) Defolliculated stage V-VI oocytes were microinjected with 0.5-36 ng mRNA and currents were recorded within 16-48 h hours of injection.
(§4) For recordings, oocytes were impaled with borosilicate recording microelectrodes (0.4-2.0 MΩ resistance) backfilled with 3 M KCl and were subjected to constant perfusion of ND96 at a rate of 3 ml min^−1. Recording solutions containing K2P activators were prepared immediately prior to use from DMSO stocks (20-100 mM), with final DMSO concentrations of 0.1%. Currents were evoked from a −80 mV holding potential followed by a 300 ms ramp from −150 mV to +50 mV. Data were recorded using a GeneClamp 500B amplifier (MDS Analytical Technologies) controlled by pCLAMP8 software (Molecular Devices), and digitized at 1 kHz using Digidata 1332 Å digitizer (MDS Analytical Technologies). For each recording, control solution (ND96) was perfused over a single oocyte until current was stable before switching to solutions containing the test compounds at various concentrations. Representative traces and dose response plots were generated in GraphPad Prism 9.

G171F TREK-1^CG* = target: T2, G171F TREK-1^CG* (Mus musculus, UniProt P97438, G186F/S146C); experiment: TEVC in Xenopus oocytes, attenuated channels; conditions: 20 μM; sequential addition of ML335, CAT335, BL-1249; 0 mV
T2 construct: expressed in transfected cells; host or cells: Xenopus laevis oocytes injected with mRNA
T2 sequence (P97438 1-411 isoform P97438-2 S131C/G171F): T1 sequence (P97438 1-411 isoform P97438-2 S131C/A286F) with G171F, F286A
Description: as §1, §2, §3, §4

Q258K K2P4.1 (TRAAK)^CG* = target: T3, Q258K K2P4.1 (TRAAK)^CG* (Homo sapiens, UniProt Q9NYG8, Q232K/S92C); experiment: TEVC in Xenopus oocytes; conditions: 20 μM; after 2 min
T3 construct: expressed in transfected cells; host or cells: Xenopus laevis oocytes injected with mRNA
T3 sequence (Q9NYG8 1-393 S92C/Q232K): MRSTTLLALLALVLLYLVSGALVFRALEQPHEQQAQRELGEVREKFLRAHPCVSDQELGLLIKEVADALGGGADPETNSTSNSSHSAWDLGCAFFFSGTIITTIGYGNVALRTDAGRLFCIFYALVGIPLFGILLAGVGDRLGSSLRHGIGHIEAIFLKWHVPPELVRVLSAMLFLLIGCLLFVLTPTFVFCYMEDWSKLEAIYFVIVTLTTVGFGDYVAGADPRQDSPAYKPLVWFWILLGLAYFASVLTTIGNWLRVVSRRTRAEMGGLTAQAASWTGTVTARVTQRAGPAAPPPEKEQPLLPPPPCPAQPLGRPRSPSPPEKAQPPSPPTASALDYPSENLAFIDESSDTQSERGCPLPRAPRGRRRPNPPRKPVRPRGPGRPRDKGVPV

SMILES	Fold-activation (I activator/I control) (A286F TREK-1^CG*)	Fold-activation (I activator/I control) (G171F TREK-1^CG*)	Fold-activation (I activator/I control) (Q258K K2P4.1 (TRAAK)^CG*) [fold]
c1ccc(-c2nn[nH]n2)c(Nc2cccc3c2CCCC3)c1 [BL-1249, reference compound]	53+5 fold	62+3 fold	
O=C(NCc1ccc(Cl)cc1Cl)c1ccc(N2C(=O)C=CC2=O)cc1 [CAT335]	21±3 fold	7.8±1.2 fold	7.4 ± 0.6
CS(=O)(=O)Nc1ccc(C(=O)NCc2ccc(Cl)cc2Cl)cc1 [ML335, reference compound]			3.7±0.3
